In patent US20240197744A1, “TREATING SEX STEROID DEPENDENT CANCER WITH BMX INHIBITORS” (The Cleveland Clinic Foundation, priority 2021, published 2024):

What was measured:
C4-2 xenografts = test: C4-2 xenograft in eugonadal mice; assay type: in vivo; conditions: C4-2 xenograft tumors
Procedure: (§1) Total RNA was extracted with GenElute Mammalian Total RNA miniprep kit (Sigma-Aldrich), and 1 μg RNA was reverse-transcribed to complementary DNA (cDNA) with the iScript cDNA Synthesis Kit (Bio-Rad). An ABI 7500 Real-Time PCR instrument (Applied Biosystems) was used to perform quantitative PCR (qPCR) analysis, using iTaq Fast SYBR Green Supermix with ROX (Bio-Rad) in 96-well plates at a final reaction volume of 10 μl. The qPCR analysis was carried out in triplicate with the following primer sets:
(§2) All mouse studies were performed under a protocol approved by the Institutional Animal Care and Use Committee of the Cleveland Clinic Lerner Research Institute. […]
(§3) To evaluate whether zanubrutinib suppresses tumor growth, 6 million C4-2 or 10 million VCaP cells (100 μl in 50% Matrigel and 50% growth media) were subcutaneously injected into mice. […] Tumor volume and progression-free survival were determined as described above. […] The number of mice in each group was determined by those that survived surgical procedures and had reached the 200 mm^3 tumor volume required to initiate treatment. Tumor diameters were measured by digital calipers three times per week and fresh frozen upon mouse sacrifice.
(§4) Androgens in xenografts were assessed by liquid chromatography tandem mass spectrometry as reported previously with slight modifications (Li et al., 2021; Zhu et al., 2018). […]

VCaP xenografts = test: VCaP xenograft in eugonadal mice; assay type: in vivo; conditions: VCaP xenograft tumors
Procedure: as §1, §2, §3, §4

C=CC(=O)N1CCC([C@@H]2CCNc3c(C(N)=O)c(-c4ccc(Oc5ccccc5)cc4)nn32)CC1 [zanubrutinib, Zanubrutinib]
no significant effect: tumor testosterone by mass spectrometry (C4-2 xenografts) | AR target gene expression (C4-2 xenografts; qPCR) | tumor testosterone by mass spectrometry (VCaP xenografts) | AR target gene expression (VCaP xenografts; qPCR)
